Key:
5-HT2c = biological target: T1, 5-HT2c (Homo sapiens, UniProt P28335); experiment: Radioligand binding, 5-HT2c ([3H]Mesulergine); details: Table 4; [3H]Mesulergine 1 nM; read-out: Binding affinity, IC50 (nM) 5-HT2c
T1 construct: purchased Euroscreen/BioSignal Packard Inc
T1 sequence (P28335 33-458): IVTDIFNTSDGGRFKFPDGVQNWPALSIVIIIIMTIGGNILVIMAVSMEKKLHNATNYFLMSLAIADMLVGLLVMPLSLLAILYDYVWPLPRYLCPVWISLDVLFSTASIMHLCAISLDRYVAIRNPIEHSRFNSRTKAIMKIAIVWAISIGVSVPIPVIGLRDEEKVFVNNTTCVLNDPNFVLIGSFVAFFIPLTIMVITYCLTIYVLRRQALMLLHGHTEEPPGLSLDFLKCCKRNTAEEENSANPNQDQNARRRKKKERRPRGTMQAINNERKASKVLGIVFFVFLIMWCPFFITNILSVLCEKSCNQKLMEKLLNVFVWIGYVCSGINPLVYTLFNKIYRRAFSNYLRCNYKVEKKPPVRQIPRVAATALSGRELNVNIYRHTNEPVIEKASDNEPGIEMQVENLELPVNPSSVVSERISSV

rats = experiment: Methamphetamine-induced disruption of prepulse inhibition (PPI) in rats; format: in vivo, rat; details: administered 30 min before methamphetamine
Protocol: To assay antipsychotic properties of the compounds according to the invention, prepulse inhibition (PPI) of acoustic startle in animals was performed. Startle response was measured using SR-LAB startle chamber (San Diego Instruments, San Diego, USA). The animal enclosure was housed in a ventilated and sound-attenuated startle chamber with 60 dB ambient noise level, and consisted of a Plexiglas cylinder 40 mm in diameter on a platform, connected to a piezoelectric accelerometer which detects and transducer motion within the cylinder. Acoustic noise bursts were presented through a loudspeaker mounted 24 ? above the animal. […] Each startle session began with a 5-min acclimatization period in the chamber to 68 dB background noises. The test session consisting of the following four different trial types was carried for all experiments: a 40 ms broadband 120 dB burst (P; pulse alone trial), P preceded 100 ms earlier by a 20 ms noise burst 10 dB above background (pP; prepulse+pulse trial), a 40 ms broadband 78 dB burst (prepulse alone trial), and a no stimulus trial (background). Eight trials of each type were presented in a pseudorandom order (total32 trials) with an average interval of 15 sec. separating each trial. An extra 5 pulse-alone trials were presented at the beginning and end of each test session, but were not used in the calculation of PPI values. PPI was defined as the percent reduction in startle amplitude in the presence of prepulse compared to the amplitude in the absence of the prepulse using the following Math Equation 1. […] Differences were considered significant at P<0.05. Statistical analyses were conducted using SigmaStat software (SigmaStat, Jandel Co., San Rafael, Calif.). The data were expressed as means±SEM.

[1] = system: HeLa cells transfected with the human 5-HT6 receptor; experiment: Cytotoxicity in HeLa cells transfected with the human 5-HT6 receptor; format: cell-based; details: at the concentrations tested

Row | SMILES | IC50 (5-HT2c) [nM] | mean startle amplitude compared with methamphetamine group (rats) | cytotoxicity [1]
1 | COc1ccc(C2(C)C(=O)c3c(N4CCNCC4)cc(Cl)cc3N(Cc3ccccc3)C2=O)cc1 (racemic) [Example 13, 1-Benzyl-7-chloro-3-(4-methoxy-phenyl)-3-methyl-5-piperazin-1-yl-1H-quinoline-2,4-dione] | 437 | no significant differences | –
2 | CC1(c2ccc(O)cc2)C(=O)c2c(N3CCNCC3)cc(Cl)cc2N(Cc2ccccc2)C1=O (racemic) [Example 14, 1-Benzyl-7-chloro-3-(4-hydroxy-phenyl)-3-methyl-5-piperazin-1-yl-1H-quinoline-2,4-dione] | > 10000 | no significant differences | did not show any cytotoxicity
